Our source for the ED50 and adverse effects values is patent US5587374A, “10(1-hydroxyethyl)-11-oxo-1-azatricyclo/7.2.0.0.^3.8/ undec-2-ene-2-carboxylic acid esters and a process for preparing thereof” (Glaxo SpA, priority 1990, dated 1996).

Data set [1] concerns E. Coli. Nature of the data set: protection tests using mice, orally administered compounds (E. Coli). The conditions noted are these: Escherichia coli, oral, protection test. The data set is classed as in vivo, mice infected with E. Coli.
The subject of data set [2] is Staph. aureus. Nature of the data set: protection tests using mice, orally administered compounds (Staph. aureus). The conditions noted are these: Staphylococcus aureus, in Mus musculus, po, read-out: ED50 Staph. aureus.
A short description of data set [3]: oral administration to mice, adverse effects. The data set is classed as in vivo. Conditions: orally administered, doses up to 1000 mg/kg. An excerpt: The compounds of the invention are also essentially non-toxic at therapeutically useful dose levels.

`CO/N=C(\C(=O)N[C@@H]1C(=O)N2C(C(=O)OC(C)OC(C)=O)=C(COC(N)=O)CS[C@H]12)c1ccco1` (stereo partly drawn) [Cefuroxime axetil, cefuroxime axetil, reference compound]: the ED50 in data set [1] worked out at 26 mg/kg; in data set [2], 6 mg/kg.

In the case of `CO[C@H]1CCC[C@H]2C1=C(C(=O)OC(C)OC(=O)OC1CCCCC1)N1C(=O)[C@H]([C@@H](C)O)[C@@H]21` (stereo partly drawn) [Example 1, 1-(Cyclohexyloxycarbonyloxy)ethyl (4S,8S,9R,10S,12R)-4-methoxy-10-(1'-hydroxyethyl)-11-oxo-1-azatricyclo-[7.2.0.0^3,8]undec-2-ene-2-carboxylate], the ED50 in data set [1] and in data set [2] was less than 1 mg/kg each time. The adverse effects result in data set [3] is reported as “no adverse effects were observed”.

In the case of `CO[C@H]1CCC[C@H]2C1=C(C(=O)OC(C)OC(=O)OC(C)C)N1C(=O)[C@H]([C@@H](C)O)[C@@H]21` (stereo partly drawn) [Example 3, 1-(Isopropyloxycarbonyloxy)ethyl (4S,8S,9R,10S,12R)-4-methoxy-10-(1'-hydroxyethyl)-11-oxo-1-azatricyclo-[7.2.0.0^3,8]undec-2-ene-2-carboxylate], the ED50 in data set [1] and in data set [2] was less than 1 mg/kg in each case.

Regarding `CO[C@H]1CCC[C@H]2C1=C(C(=O)OCOC(=O)C(C)(C)C)N1C(=O)[C@H]([C@@H](C)O)[C@@H]21` [Example 10, [(1,1-Dimethyl-ethyl)carbonyloxy]methyl (4S,8S, 9R, 10S, 12R) -4-methoxy-10-(1'-hydroxyethyl)-11-oxo-1-azatricyclo[7.2.0.0^3,8]undec-2-ene-2-carboxylate], the ED50 in data set [1] and in data set [2] was less than 1 mg/kg throughout.

As a reminder, the ED50 is the dose that gives a 50% effect, or the effect in half of the subjects.
